{
  "source": "paper PMC4339887",
  "about": "“Selective Sirt2 inhibition by ligand-induced rearrangement of the active site” (Nature Communications, 2015)",
  "key": {"[1]": {"system": "p53-Lys382-acetylation in U2OS cells", "experiment": "p53 acetylation after ultraviolet exposure, western blot", "type": "cell-based", "details": "1 h pretreatment, 20 J cm^-2 UV, further 6 h", "method": "U2OS cells (ATCC accession no. HTB-96) were seeded and cultured until they reached 90% confluency. […] Cells were incubated for an additional 6 h in the presence of the inhibitor and then lysed in IPLS (50 mM Tris/HCl, 150 mM NaCl; 0.5 mM EDTA; 0.5% (v/v) NP-40; 1 × Complete Protease Inhibitors (Roche), pH 8.0) and resuspended in 1 × Laemmli Buffer. Samples were then separated on SDS–PAGE, transferred to a nitrocellulose membrane (Bio-Rad), blocked with non-fat dry milk (Roth, 5% (w/v), TBS, 0.1% (v/v) Tween 20) and probed with anti-acetyl-p53 K382 (Cell Signaling, #2522), anti-p53 DO.1 (Santa Cruz Biotechnology, sc-126) and anti-vinculin (Cell Signaling, #4650) as a loading control. Uncropped blots are shown in the Supplementary Fig. 10."}, "[2]": {"system": "mitochondrial lysine-acetylation in HEK293 cells", "experiment": "mitochondrial protein acetylation, western blot of mitochondrial extracts", "type": "cell-based", "details": "16 h", "method": "page 27: Cell cultiva tion. HEK-293 cells (ATCC accession no. CRL-1573) were grown in Dulbecco's modified Eagle's medium (DMEM, PAA) containing 10% (vol/vol) fetal calf serum (FCS, PAA), 1% (vol/vol) penicillin (PAA), 1% (vol/vol) streptomycin (PAA), 1% (vol/vol), L- glutamine (PAA) at 37 °C in a 5% (vol/vol) CO2 atmosphere. Mitochondrial extra ction. HEK-293 cells (ATCC accession no. CRL-1573) were treated with nicotinamide or […]2 at the indicated concentrations for 16 h. Cells were washed in PBS and lysed in 5 packed cell volumes of lysis buffer (20 mM HEPES/KOH, 250 mM sucrose; 10 mM KCl, 1.5 mM MgCl2, 1 mM EDTA, 1 mM EGTA, 1 mM DTT; 0.1 mM PMSF, 1uComplete Protease Inhibitor Cocktail (Roche), pH 7.5). Cells were then homogenized in a Dounce homogenizer and 10% (vol/vol) of sample was removed for use as whole cell extract (WCE). To the remaining lysate, unbroken cells and nuclei were removed by centrifugation (10 min, 800g). The supernatant was transferred and centrifuged (10 min, 7,000g) to pellet mitochondria. Mitochondria were washed twice in lysis buffer, repeating centrifugation after each wash, followed by resuspending washed mitochondria in lysis buffer. […] Lysates were cleared by centrifugation, protein concentrations were quantitated and normalized with 1u Laemmli Buffer. […]"}, "[3]": {"system": "acetylation of the microtubule network in HeLa cells", "experiment": "immunofluorescence microscopy of acetylated microtubule network", "type": "cell-based", "details": "4 h", "source_text": "Cells were then stained with an anti-acetyl-α-tubulin antibody (Sigma-Aldrich, T6793) and then probed with a secondary Alexa 546 conjugated anti-mouse-antibody (Invitrogen). Nuclei were counterstained with DAPI (4',6-diamidino-2-phenylindole). Coverslips were mounted with FluoroMount (Sigma-Aldrich) and sealed with DPX Mountant (Sigma-Aldrich). Images of the mounted samples were acquired on a Leica DM500 microscope equipped with a Leica DFC 395 FX camera and HBO 100 W lamp[40]. The microscope was run with the Leica Application Suite 4.4.0 software. Chroma UV filter set (No. C40888) and Leica N2.1 filter set (No. 513832) were used for DAPI and Alexa 546 signal acquisition, respectively, with a HCX FL Fluotar 40x/0.75 (dry) objective. Further details about the equipment and the settings that were used to acquire the images are found in the Supplementary Methods section. Unprocessed images are found in Supplementary Fig. 9. […]\nImmunocytochemistry equipment and settings. The signal of Alexa 546 and DAPI of the same region were acquired with constant illumination parameters as grayscale 8-bit 600 dpi tiff files (1600u 1200 pixels). Alexa 546 was acquired after 639.1 ms with a gamma factor of 0.65 without multiplying. The gain was set to 1. DAPI-stained images were acquired after about 20 ms with the same parameters as the one for Alexa 546 image acquisition. The temperature in the microscope room was kept at RT. Representative regions of each samples were processed with Adobe Photoshop CS2 to generate images in RGB mode by copying the appropriate original greyscale images to the blue (nuclei, DAPI) and the red (acetylated D-tubulin signal, Alexa 546) channel, respectively. As adjustment, a minimal background subtraction was applied on all images during processing in the same manner. The resolution was changed from 600 dpi (source images) to 450 dpi without resampling (Fig. 7 of the main article). LUT (CLUT) of grayscale images of the acetylated D-tubulin signal and of the DAPI signal are shown in Supplementary Fig. 8. […]"}, "human Sirt1": {"target": "T1, human Sirt1 (Homo sapiens, UniProt Q96EB6)", "T1 sequence (Q96EB6 133-747)": "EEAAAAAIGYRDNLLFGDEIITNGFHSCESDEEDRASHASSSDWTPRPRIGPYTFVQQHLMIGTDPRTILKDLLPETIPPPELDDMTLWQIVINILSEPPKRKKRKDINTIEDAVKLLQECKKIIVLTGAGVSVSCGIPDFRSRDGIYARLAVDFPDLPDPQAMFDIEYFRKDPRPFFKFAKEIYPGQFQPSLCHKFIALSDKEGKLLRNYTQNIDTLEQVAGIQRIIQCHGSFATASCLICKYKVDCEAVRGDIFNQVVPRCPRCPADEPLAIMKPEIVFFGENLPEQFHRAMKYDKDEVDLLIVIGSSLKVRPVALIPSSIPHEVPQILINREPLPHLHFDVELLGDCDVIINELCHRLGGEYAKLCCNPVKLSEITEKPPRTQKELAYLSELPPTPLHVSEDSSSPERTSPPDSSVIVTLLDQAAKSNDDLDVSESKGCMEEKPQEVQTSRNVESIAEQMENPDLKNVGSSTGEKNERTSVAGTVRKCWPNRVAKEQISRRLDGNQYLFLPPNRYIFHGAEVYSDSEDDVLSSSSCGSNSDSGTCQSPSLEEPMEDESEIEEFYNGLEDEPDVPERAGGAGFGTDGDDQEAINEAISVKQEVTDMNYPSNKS", "experiment": "fluorescence-based in vitro sirtuin assay, substrate ZMAL", "details": "at 50 μM"}, "human Sirt2": {"target": "T2, human Sirt2 (Homo sapiens, UniProt Q8IXJ6)", "T2 sequence (Q8IXJ6 25-389)": "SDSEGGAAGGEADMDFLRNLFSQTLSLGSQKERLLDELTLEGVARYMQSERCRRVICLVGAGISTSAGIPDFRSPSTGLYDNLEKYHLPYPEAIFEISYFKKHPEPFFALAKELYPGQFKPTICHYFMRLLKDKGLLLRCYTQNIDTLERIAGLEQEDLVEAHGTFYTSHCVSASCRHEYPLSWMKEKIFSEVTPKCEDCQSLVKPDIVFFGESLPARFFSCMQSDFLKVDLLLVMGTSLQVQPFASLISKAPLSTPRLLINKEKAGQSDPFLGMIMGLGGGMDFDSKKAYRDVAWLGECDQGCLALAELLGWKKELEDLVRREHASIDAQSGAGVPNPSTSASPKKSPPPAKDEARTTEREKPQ", "experiment": "fluorescence-based in vitro sirtuin assay, substrate ZMAL"}, "[4]": {"system": "α-tubulin acetylation in HeLa cells", "experiment": "tubulin acetylation, western blot", "type": "cell-based", "details": "various concentrations, 5 h", "source_text": "Cell samples were then separated using SDS–PAGE (12.5% (w/v) polyacrylamide), transferred to an activated nitrocellulose membrane (Bio-Rad), blocked with non-fat dry milk (Roth, 5% (w/v), TBS, 0.1% (v/v) Tween 20) and probed with an anti-acetyl-α-tubulin antibody (1:1,000, Sigma-Aldrich, T6793) and an anti-GAPDH antibody (1:2,000–1:5,000, Sigma-Aldrich, G9545) as a loading control (Fusion SL, peqlab). An uncropped blot is shown in Supplementary Fig. 8."}, "BubR1 in HeLa cells": {"system": "BubR1 in HeLa cells", "experiment": "abundance of BubR1, western blot", "type": "cell-based", "details": "various concentrations, 16 h", "method": "Cells were washed with PBS, lysed in IPLS (50 mM Tris/HCl, 150 mM NaCl, 0.5 mM EDTA, 0.5% (v/v) NP-40, pH 7.5, supplemented with Complete protease inhibitors (Roche)). Samples were pelleted and resuspended in 1 × SDS–PAGE sample buffer and heated (95 °C, 5 min). Cell samples were separated using SDS–PAGE (10% (w/v) polyacrylamide), transferred to a nitrocellulose membrane (Bio-Rad), blocked with non-fat dry milk (Roth, 5% (w/v), TBS, 0.1% (v/v) Tween 20) and probed with the anti-BubR1 (1:5,000, BD Biosciences, 612502) and anti-tubulin (1:5,000, Sigma-Aldrich, T5168) as a loading control. Uncropped blots are shown in the Supplementary Fig. 8."}, "Sirt3": {"system": "Sirt3", "design": "method as in earlier work", "details": "selectivity profile, Sirt3 entry; † inhibition substrate-dependent; ref 2-9 (supplementary references); cited from earlier work"}, "Sirt1": {"system": "Sirt1", "design": "method as in earlier work", "details": "selectivity profile, Sirt1 entry; ref 2-9 (supplementary references); cited from earlier work"}, "Sirt2": {"target": "Sirt2", "design": "method as in earlier work", "details": "ref 2-9 (supplementary references), cited from earlier work"}},
  "note": "“Also recorded” adds a separate entry of the source.",
  "data": [
    {"smiles": "NC(=O)c1cccnc1", "note": "[NCA, nicotinamide, reference compound]", "values": [
      {"measurement": "acetylation of p53 (Lys382) after ultraviolet exposure", "setting": "[1]", "value": "further increased"},
      {"measurement": "acetylation of p53 (Lys382) after ultraviolet exposure", "setting": "[1]; listed as nicotinamide", "value": "increase"},
      {"measurement": "acetylation of mitochondrial proteins", "setting": "[2]", "value": "increase"}
    ]},
    {"smiles": "N#C/C(=C\\c1ccc(-c2cc(Cl)ccc2Cl)o1)C(=O)Nc1cccc2ncccc12", "note": "[AGK2, reference compound]", "values": [
      {"measurement": "acetylation level of the microtubule network", "setting": "[3]; 20 μM", "value": "hyperacetylation of the microtubule network"},
      {"measurement": "activity of Sirt1", "setting": "human Sirt1", "value": "not affected"}
    ]},
    {"smiles": "O=C(CSc1ncccn1)Nc1ncc(Cc2ccccc2)s1", "note": "[SirReal4]", "values": [
      {"measurement": "IC50", "setting": "human Sirt2", "value": 16.8, "unit": "µM"}
    ]},
    {"smiles": "Cc1cc(C)nc(SCC(=O)N(C)c2ncc(Cc3cccc4ccccc34)s2)n1", "note": "[SirReal6]", "values": [
      {"measurement": "acetylation level of the microtubule network", "setting": "[3]; 50 μM", "value": "does not alter; also recorded: no substantial change"},
      {"measurement": "acetylation of p53 (Lys382) after ultraviolet exposure", "setting": "[1]", "value": "did not observe an increase"},
      {"measurement": "IC50", "setting": "human Sirt2", "value": "> 100", "unit": "µM"},
      {"measurement": "level of α-tubulin acetylation", "setting": "[4]", "value": "not"},
      {"measurement": "abundance of BubR1", "setting": "BubR1 in HeLa cells", "value": "did not influence"}
    ]},
    {"smiles": "O=C(Nc1ccccc1-c1cn2c(CN3CCNCC3)csc2n1)c1cnc2ccccc2n1", "note": "[SRT1720]", "values": [
      {"measurement": "Selectivity Sirt1/Sirt2/Sirt3 (fold): Sirt3", "setting": "Sirt3", "value": 1, "unit": "fold"},
      {"measurement": "Selectivity Sirt1/Sirt2/Sirt3 (fold): Sirt1", "setting": "Sirt1", "value": "activation"}
    ]},
    {"smiles": "Cc1cc(C)cc(SCC(=O)Nc2ncc(Cc3cccc4ccccc34)s2)c1", "note": "[SirReal5]", "values": [
      {"measurement": "acetylation of p53 (Lys382) after ultraviolet exposure", "setting": "[1]", "value": "did not observe an increase"},
      {"measurement": "IC50", "setting": "human Sirt2", "value": "> 50", "unit": "µM"},
      {"measurement": "abundance of BubR1", "setting": "BubR1 in HeLa cells", "value": "did not influence"}
    ]},
    {"smiles": "O=C(CSc1ncccn1)Nc1ncc(Cc2cccc3ccccc23)s1", "note": "[SirReal3]", "values": [
      {"measurement": "IC50", "setting": "human Sirt2", "value": 2.3, "unit": "µM"}
    ]},
    {"smiles": "NC(=O)[C@H]1CCCCc2c1[nH]c1ccc(Cl)cc21", "note": "[CHIC-35]", "values": [
      {"measurement": "Selectivity Sirt1/Sirt2/Sirt3 (fold): Sirt3", "setting": "Sirt3", "value": "> 833", "unit": "fold"},
      {"measurement": "IC50/kd for Sirt2", "setting": "Sirt2; published values, Supplementary Table 1", "value": 2.4, "unit": "µM"},
      {"measurement": "Selectivity Sirt1/Sirt2/Sirt3 (fold): Sirt2", "setting": "Sirt2; selectivity profile, Sirt2 entry", "value": 23, "unit": "fold"},
      {"measurement": "Selectivity Sirt1/Sirt2/Sirt3 (fold): Sirt1", "setting": "Sirt1", "value": 1, "unit": "fold"}
    ]}
  ]
}
